Measured values published in patent publication US20110028566A1, “COMPOSITIONS AND PRODUCTS CONTAINING CYCLOALIPHATIC DIOL ANTIMICROBIAL AGENTS AND METHODS OF USING THE COMPOSITIONS AND PRODUCTS” (EASTMAN CHEMICAL COMPANY, priority 2009, published 2011).

Assays:
Experiment in all cases: Microbial challenge testing in BPW
Format in all cases: cell-based
Bacillus subtilis = settings: for Grade code, B. subtilis, 3 Day / Grade code, B. subtilis, 14 Day / Grade code, B. subtilis, 30 Days: BPW, w/v % in label, average of replicates
Outline: (§1)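 Buffered peptone water (pH 7.0) with 1% (w/v) dextrose was spiked with test material (w/v %) and challenged to a final 10^5 to 10^6 cfu/mL at time zero. Substrates were incubated at 35° C.±2° C. for 14 days, then at ambient room temperature. Broth-alone tubes served as controls.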

Burkholderia cepacia = settings: for Grade code, B. cepacia, 3 Days / Grade code, B. cepacia, 14 Days / Grade code, B. cepacia, 30 Days: BPW, w/v % in label, average of replicates
Outline: as §1

Pseudomonas aeruginosa = settings: for Grade code, P. aeruginosa, 3 Days / Grade code, P. aeruginosa, 13 Days / Grade code, P. aeruginosa, 30 Days: BPW, w/v % in label, average of replicates
Outline: as §1

[1] = test system: Staphylococcus epidermidis; settings: for Grade code, S. epidermidis, 3 Days / Grade code, S. epidermidis, 13 Days / Grade code, S. epidermidis, 30 Days: BPW, w/v % in label, average of replicates
Outline: as §1

[2] = 3 days incubation, listed as 0.5% AB
[3] = 3 days incubation, listed as 1.25% AB
[4] = 3 days incubation, listed as 2.5% AB
[5] = 14 days incubation, listed as 0.5% AB
[6] = 14 days incubation, listed as 1.25% AB
[7] = 14 days incubation, listed as 2.5% AB
[8] = 30 days incubation, listed as 0.5% AB
[9] = 30 days incubation, listed as 1.25% AB
[10] = 30 days incubation, listed as 2.5% AB
[11] = 13 days incubation, listed as 0.5% AB
[12] = 13 days incubation, listed as 1.25% AB
[13] = 13 days incubation, listed as 2.5% AB

OCC1CCC(CO)CC1 (stereo not drawn) [1,4-CHDM, 1,4-cyclohexanedimethanol]
Grade code B. subtilis (Bacillus subtilis; 0.5%, 3 days incubation): 4 (1001 to 10,000 colonies (thus 10,000 cfu/mL to 100,000 cfu/mL))
Grade code B. subtilis (Bacillus subtilis; 0.5%, 14 days incubation): 4 (1001 to 10,000 colonies (thus 10,000 cfu/mL to 100,000 cfu/mL))
Grade code B. subtilis (Bacillus subtilis; 0.5%, 30 days incubation): 4 (1001 to 10,000 colonies (thus 10,000 cfu/mL to 100,000 cfu/mL))
Grade code B. subtilis (Bacillus subtilis; 1.25%, 3 days incubation): 4 (1001 to 10,000 colonies (thus 10,000 cfu/mL to 100,000 cfu/mL))
Grade code B. subtilis (Bacillus subtilis; 1.25%, 14 days incubation): 4 (1001 to 10,000 colonies (thus 10,000 cfu/mL to 100,000 cfu/mL))
Grade code B. subtilis (Bacillus subtilis; 1.25%, 30 days incubation): 4 (1001 to 10,000 colonies (thus 10,000 cfu/mL to 100,000 cfu/mL))
Grade code B. subtilis (Bacillus subtilis; 2.5%, 3 days incubation): 3 (101 to 1000 colonies (thus 1000 to 10,000 cfu/mL))
Grade code B. subtilis (Bacillus subtilis; 2.5%, 14 days incubation): 2 (52 to 100 colonies counted (thus 520 to 1000 cfu/mL))
Grade code B. subtilis (Bacillus subtilis; 2.5%, 30 days incubation): 1 (1 to 51 colonies counted (thus 10 to 510 cfu/mL))
Grade code, B. subtilis, 3 Day (Bacillus subtilis; [2]): 4 (1001 to 10,000 colonies (thus 10,000 cfu/mL to 100,000 cfu/mL))
Grade code, B. subtilis, 3 Day (Bacillus subtilis; [3]): 4 (1001 to 10,000 colonies (thus 10,000 cfu/mL to 100,000 cfu/mL))
Grade code, B. subtilis, 3 Day (Bacillus subtilis; [4]): 3 (101 to 1000 colonies (thus 1000 to 10,000 cfu/mL))
Grade code, B. subtilis, 14 Day (Bacillus subtilis; [5]): 4 (1001 to 10,000 colonies (thus 10,000 cfu/mL to 100,000 cfu/mL))
Grade code, B. subtilis, 14 Day (Bacillus subtilis; [6]): 4 (1001 to 10,000 colonies (thus 10,000 cfu/mL to 100,000 cfu/mL))
Grade code, B. subtilis, 14 Day (Bacillus subtilis; [7]): 2 (52 to 100 colonies counted (thus 520 to 1000 cfu/mL))
Grade code, B. subtilis, 30 Days (Bacillus subtilis; [8]): 4 (1001 to 10,000 colonies (thus 10,000 cfu/mL to 100,000 cfu/mL))
Grade code, B. subtilis, 30 Days (Bacillus subtilis; [9]): 4 (1001 to 10,000 colonies (thus 10,000 cfu/mL to 100,000 cfu/mL))
Grade code, B. subtilis, 30 Days (Bacillus subtilis; [10]): 1 (1 to 51 colonies counted (thus 10 to 510 cfu/mL))
Grade code B. cepacia (Burkholderia cepacia; 0.5%, 3 days incubation): 4 (1001 to 10,000 colonies (thus 10,000 cfu/mL to 100,000 cfu/mL))
Grade code B. cepacia (Burkholderia cepacia; 0.5%, 14 days incubation): 4 (1001 to 10,000 colonies (thus 10,000 cfu/mL to 100,000 cfu/mL))
Grade code B. cepacia (Burkholderia cepacia; 0.5%, 30 days incubation): 4 (1001 to 10,000 colonies (thus 10,000 cfu/mL to 100,000 cfu/mL))
Grade code B. cepacia (Burkholderia cepacia; 1.25%, 3 days incubation): 4 (1001 to 10,000 colonies (thus 10,000 cfu/mL to 100,000 cfu/mL))
Grade code B. cepacia (Burkholderia cepacia; 1.25%, 14 days incubation): 2 (52 to 100 colonies counted (thus 520 to 1000 cfu/mL))
Grade code B. cepacia (Burkholderia cepacia; 1.25%, 30 days incubation): 4 (1001 to 10,000 colonies (thus 10,000 cfu/mL to 100,000 cfu/mL))
Grade code B. cepacia (Burkholderia cepacia; 2.5%, 3 days incubation): 0 (No growth detected or <1 colony (thus <10 cfu/mL))
Grade code B. cepacia (Burkholderia cepacia; 2.5%, 14 days incubation): 0 (No growth detected or <1 colony (thus <10 cfu/mL))
Grade code B. cepacia (Burkholderia cepacia; 2.5%, 30 days incubation): 0 (No growth detected or <1 colony (thus <10 cfu/mL))
Grade code, B. cepacia, 3 Days (Burkholderia cepacia; [2]): 4 (1001 to 10,000 colonies (thus 10,000 cfu/mL to 100,000 cfu/mL))
Grade code, B. cepacia, 3 Days (Burkholderia cepacia; [3]): 4 (1001 to 10,000 colonies (thus 10,000 cfu/mL to 100,000 cfu/mL))
Grade code, B. cepacia, 3 Days (Burkholderia cepacia; [4]): 0 (No growth detected or <1 colony (thus <10 cfu/mL))
Grade code, B. cepacia, 14 Days (Burkholderia cepacia; [5]): 4 (1001 to 10,000 colonies (thus 10,000 cfu/mL to 100,000 cfu/mL))
Grade code, B. cepacia, 14 Days (Burkholderia cepacia; [6]): 2 (52 to 100 colonies counted (thus 520 to 1000 cfu/mL))
Grade code, B. cepacia, 14 Days (Burkholderia cepacia; [7]): 0 (No growth detected or <1 colony (thus <10 cfu/mL))
Grade code, B. cepacia, 30 Days (Burkholderia cepacia; [8]): 4 (1001 to 10,000 colonies (thus 10,000 cfu/mL to 100,000 cfu/mL))
Grade code, B. cepacia, 30 Days (Burkholderia cepacia; [9]): 4 (1001 to 10,000 colonies (thus 10,000 cfu/mL to 100,000 cfu/mL))
Grade code, B. cepacia, 30 Days (Burkholderia cepacia; [10]): 0 (No growth detected or <1 colony (thus <10 cfu/mL))
Grade code P. aeruginosa (Pseudomonas aeruginosa; 0.5%, 3 days incubation): 4 (1001 to 10,000 colonies (thus 10,000 cfu/mL to 100,000 cfu/mL))
Grade code P. aeruginosa (Pseudomonas aeruginosa; 0.5%, 13 days incubation): 4 (1001 to 10,000 colonies (thus 10,000 cfu/mL to 100,000 cfu/mL))
Grade code P. aeruginosa (Pseudomonas aeruginosa; 0.5%, 30 days incubation): 4 (1001 to 10,000 colonies (thus 10,000 cfu/mL to 100,000 cfu/mL))
Grade code P. aeruginosa (Pseudomonas aeruginosa; 1.25%, 3 days incubation): 4 (1001 to 10,000 colonies (thus 10,000 cfu/mL to 100,000 cfu/mL))
Grade code P. aeruginosa (Pseudomonas aeruginosa; 1.25%, 13 days incubation): 3 (101 to 1000 colonies (thus 1000 to 10,000 cfu/mL))
Grade code P. aeruginosa (Pseudomonas aeruginosa; 1.25%, 30 days incubation): 4 (1001 to 10,000 colonies (thus 10,000 cfu/mL to 100,000 cfu/mL))
Grade code P. aeruginosa (Pseudomonas aeruginosa; 2.5%, 3 days incubation): 3 (101 to 1000 colonies (thus 1000 to 10,000 cfu/mL))
Grade code P. aeruginosa (Pseudomonas aeruginosa; 2.5%, 13 days incubation): 2 (52 to 100 colonies counted (thus 520 to 1000 cfu/mL))
Grade code P. aeruginosa (Pseudomonas aeruginosa; 2.5%, 30 days incubation): 0 (No growth detected or <1 colony (thus <10 cfu/mL))
Grade code, P. aeruginosa, 3 Days (Pseudomonas aeruginosa; [2]): 4 (1001 to 10,000 colonies (thus 10,000 cfu/mL to 100,000 cfu/mL))
Grade code, P. aeruginosa, 3 Days (Pseudomonas aeruginosa; [3]): 4 (1001 to 10,000 colonies (thus 10,000 cfu/mL to 100,000 cfu/mL))
Grade code, P. aeruginosa, 3 Days (Pseudomonas aeruginosa; [4]): 3 (101 to 1000 colonies (thus 1000 to 10,000 cfu/mL))
Grade code, P. aeruginosa, 13 Days (Pseudomonas aeruginosa; [11]): 4 (1001 to 10,000 colonies (thus 10,000 cfu/mL to 100,000 cfu/mL))
Grade code, P. aeruginosa, 13 Days (Pseudomonas aeruginosa; [12]): 3 (101 to 1000 colonies (thus 1000 to 10,000 cfu/mL))
Grade code, P. aeruginosa, 13 Days (Pseudomonas aeruginosa; [13]): 2 (52 to 100 colonies counted (thus 520 to 1000 cfu/mL))
Grade code, P. aeruginosa, 30 Days (Pseudomonas aeruginosa; [8]): 4 (1001 to 10,000 colonies (thus 10,000 cfu/mL to 100,000 cfu/mL))
Grade code, P. aeruginosa, 30 Days (Pseudomonas aeruginosa; [9]): 4 (1001 to 10,000 colonies (thus 10,000 cfu/mL to 100,000 cfu/mL))
Grade code, P. aeruginosa, 30 Days (Pseudomonas aeruginosa; [10]): 0 (No growth detected or <1 colony (thus <10 cfu/mL))
Grade code S. epidermidis ([1]; 0.5%, 3 days incubation): 4 (1001 to 10,000 colonies (thus 10,000 cfu/mL to 100,000 cfu/mL))
Grade code S. epidermidis ([1]; 0.5%, 13 days incubation): 4 (1001 to 10,000 colonies (thus 10,000 cfu/mL to 100,000 cfu/mL))
Grade code S. epidermidis ([1]; 0.5%, 30 days incubation): 4 (1001 to 10,000 colonies (thus 10,000 cfu/mL to 100,000 cfu/mL))
Grade code S. epidermidis ([1]; 1.25%, 3 days incubation): 2 (52 to 100 colonies counted (thus 520 to 1000 cfu/mL))
Grade code S. epidermidis ([1]; 1.25%, 13 days incubation): 0.7
Grade code S. epidermidis ([1]; 1.25%, 30 days incubation): 2 (52 to 100 colonies counted (thus 520 to 1000 cfu/mL))
Grade code S. epidermidis ([1]; 2.5%, 3 days incubation): 0.7
Grade code S. epidermidis ([1]; 2.5%, 13 days incubation): 0 (No growth detected or <1 colony (thus <10 cfu/mL))
Grade code S. epidermidis ([1]; 2.5%, 30 days incubation): 0 (No growth detected or <1 colony (thus <10 cfu/mL))
Grade code, S. epidermidis, 3 Days [1, 2]: 4 (1001 to 10,000 colonies (thus 10,000 cfu/mL to 100,000 cfu/mL))
Grade code, S. epidermidis, 3 Days [1, 3]: 2 (52 to 100 colonies counted (thus 520 to 1000 cfu/mL))
Grade code, S. epidermidis, 3 Days [1, 4]: 0.7
Grade code, S. epidermidis, 13 Days [1, 11]: 4 (1001 to 10,000 colonies (thus 10,000 cfu/mL to 100,000 cfu/mL))
Grade code, S. epidermidis, 13 Days [1, 12]: 0.7
Grade code, S. epidermidis, 13 Days [1, 13]: 0 (No growth detected or <1 colony (thus <10 cfu/mL))
Grade code, S. epidermidis, 30 Days [1, 8]: 4 (1001 to 10,000 colonies (thus 10,000 cfu/mL to 100,000 cfu/mL))
Grade code, S. epidermidis, 30 Days [1, 9]: 2 (52 to 100 colonies counted (thus 520 to 1000 cfu/mL))
Grade code, S. epidermidis, 30 Days [1, 10]: 0 (No growth detected or <1 colony (thus <10 cfu/mL))
